The text below walks through data of US20240226110A1, “5-HT2C AGONIST FOR USE IN TREATING CONDITIONS ASSOCIATED WITH CENTRAL HYPOVENTILATION” (APNIMED, INC. (DELAWARE), priority 2021, published 2024).

The target in experiment [1] is T1, serotonin (5-HT) 2C receptor (Rattus norvegicus, UniProt P08909).
T1 construct: increased genioglossus activity and reduced upper airway collapsibility in anesthetized rats; from tissue; host or cells: anesthetized rats (in vivo; hypoglossal motor nucleus / brainstem)
T1 sequence (P08909 33-460): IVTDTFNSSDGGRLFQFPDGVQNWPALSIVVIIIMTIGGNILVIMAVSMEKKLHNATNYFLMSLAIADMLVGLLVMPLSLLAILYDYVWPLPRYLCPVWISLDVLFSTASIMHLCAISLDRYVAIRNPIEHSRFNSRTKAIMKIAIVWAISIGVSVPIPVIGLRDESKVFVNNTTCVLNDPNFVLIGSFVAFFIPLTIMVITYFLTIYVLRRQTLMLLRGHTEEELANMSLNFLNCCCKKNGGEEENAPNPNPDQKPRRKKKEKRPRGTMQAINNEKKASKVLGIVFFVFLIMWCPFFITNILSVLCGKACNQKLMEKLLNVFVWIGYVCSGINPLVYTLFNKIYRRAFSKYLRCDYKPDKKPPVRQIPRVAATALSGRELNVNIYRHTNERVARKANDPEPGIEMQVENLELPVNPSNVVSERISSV
Conditions: anesthetized rats; cited from earlier work.

For the next experiment, the system named is OSA patients. In words: Crossover pilot trial, lorcaserin 15 mg or placebo before bedtime for one night; polysomnography with pneumotach and oronasal mask. The class given is in vivo, human. Conditions: single patient, hypopneas present in both conditions. On the procedure: In a crossover pilot trial including 6 OSA patients, the patients were administered in random order lorcaserin 15 mg or placebo before bedtime for one night.
Patients were outfitted with the usual polysomnography equipment plus a pneumotach and oronasal mask for accurate ventilation measurements. The effect of lorcaserin on several ventilatory parameters reflecting the upper airway collapsibility and muscle activity were measured using validated algorithms.

On to `COc1cc(CC(C)N)c(OC)cc1I` (stereo not drawn) [DOI, 2,5-dimethoxy-4-iodoaminophentamine], for which, in experiment [1], the genioglossus activity entry is on record as “increased” and the upper airway collapsibility result is “reduced”.
Consider `C[C@H]1CNCCc2ccc(Cl)cc21` [lorcaserin, (1R)-8-chloro-1-methyl-2,3,4,5-tetrahydro-1H-3-benzazepine], for which the “ventilation during NREM sleep of a patient, lorcaserin night vs placebo (FIG. 2)” value with OSA patients was “increased substantially”.
